{"source": "PubChem BioAssay (NCI)", "assay_in_all_cases": "NCI tumour cell line growth inhibition, 48 h", "key": {"[1]": {"test_system": "MDA-MB-435"}, "[2]": {"test_system": "HCC-2998 colon"}, "[3]": {"test_system": "OVCAR-5 ovarian"}, "[4]": {"test_system": "ACHN renal"}, "[5]": {"test_system": "NCI-H226 lung"}, "[6]": {"test_system": "EKVX NSCLC"}, "[7]": {"test_system": "TK-10 renal"}, "[8]": {"test_system": "CAKI-1 renal"}, "[9]": {"test_system": "RPMI-8226 leukemia"}, "[10]": {"test_system": "OVCAR-3 ovarian"}, "[11]": {"test_system": "SF-295 CNS"}, "[12]": {"test_system": "K-562 leukemia"}, "[13]": {"test_system": "KM12 colon"}, "[14]": {"test_system": "UACC-257 melanoma"}, "[15]": {"test_system": "HS 578T breast"}, "[16]": {"test_system": "OVCAR-8 ovarian"}, "[17]": {"test_system": "SN12C renal"}, "[18]": {"test_system": "NCI-H460 lung"}, "[19]": {"test_system": "HOP-62 NSCLC"}, "[20]": {"test_system": "MOLT-4 leukemia"}, "[21]": {"test_system": "HCT-116 colon"}, "[22]": {"test_system": "NCI-H23 lung"}, "[23]": {"test_system": "DU-145 prostate"}, "[24]": {"test_system": "HCT-15 colon"}, "[25]": {"test_system": "MALME-3M melanoma"}, "[26]": {"test_system": "BT-549 breast"}, "[27]": {"test_system": "OVCAR-4 ovarian"}, "[28]": {"test_system": "CCRF-CEM leukemia"}, "[29]": {"test_system": "A498 renal"}, "[30]": {"test_system": "IGROV1 ovarian"}, "[31]": {"test_system": "SK-MEL-28 melanoma"}, "[32]": {"test_system": "PC-3 prostate"}, "[33]": {"test_system": "SNB-19 CNS"}, "[34]": {"test_system": "SR leukemia"}, "[35]": {"test_system": "786-0 renal"}, "[36]": {"test_system": "M14 melanoma"}, "[37]": {"test_system": "NCI-H522 lung"}, "[38]": {"test_system": "HL-60(TB) leukemia"}, "[39]": {"test_system": "UO-31 renal"}, "[40]": {"test_system": "MDA-MB-231 breast"}, "[41]": {"test_system": "LOX IMVI melanoma"}, "[42]": {"test_system": "RXF 393 renal"}, "[43]": {"test_system": "SF-268 CNS"}, "[44]": {"test_system": "A549 NSCLC"}, "[45]": {"test_system": "SW-620 colon"}, "[46]": {"test_system": "HT29 colon"}, "[47]": {"test_system": "MCF7 breast"}, "[48]": {"test_system": "UACC-62 melanoma"}, "[49]": {"test_system": "COLO 205 colon"}}, "note": "Where “and” joins values, the source holds several entries; their conditions need not be identical. Equal entries are not always repeated.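 The compound was tested at five concentrations on cells cultured in 96-well plates, with a 48-hour exposure period. Abbreviation: GI50, concentration required for 50% inhibition of growth. TGI denotes the concentration required for complete inhibition of growth.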"}
{"smiles": "Cc1ccnc2[nH]c(-c3cccc4ccccc34)cc(=O)c12", "values": [{"measurement": "TGI", "setting": "[1]", "value": 0.000495, "unit": "µM"}, {"measurement": "GI50", "setting": "[2]", "value": 0.101, "unit": "µM"}, {"measurement": "TGI", "setting": "[2]", "value": "0.363 µM and 0.707 µM"}, {"measurement": "GI50", "setting": "[3]", "value": 0.0813, "unit": "µM"}, {"measurement": "TGI", "setting": "[3]", "value": "> 100", "unit": "µM"}, {"measurement": "GI50", "setting": "[4]", "value": 0.039, "unit": "µM"}, {"measurement": "TGI", "setting": "[4]", "value": "> 100", "unit": "µM"}, {"measurement": "TGI", "setting": "[5]", "value": 33.9, "unit": "µM"}, {"measurement": "GI50", "setting": "[6]", "value": 0.0151, "unit": "µM"}, {"measurement": "TGI", "setting": "[6]", "value": 34.6, "unit": "µM"}, {"measurement": "GI50", "setting": "[7]", "value": 25.8, "unit": "µM"}, {"measurement": "TGI", "setting": "[7]", "value": "> 100", "unit": "µM"}, {"measurement": "TGI", "setting": "[8]", "value": "> 100", "unit": "µM"}, {"measurement": "TGI", "setting": "[9]", "value": 28.6, "unit": "µM"}, {"measurement": "TGI", "setting": "[10]", "value": 0.0115, "unit": "µM"}, {"measurement": "GI50", "setting": "[11]", "value": 0.0107, "unit": "µM"}, {"measurement": "TGI", "setting": "[11]", "value": "> 100", "unit": "µM"}, {"measurement": "TGI", "setting": "[12]", "value": 63.9, "unit": "µM"}, {"measurement": "TGI", "setting": "[13]", "value": 3.85, "unit": "µM"}, {"measurement": "TGI", "setting": "[14]", "value": "> 100", "unit": "µM"}, {"measurement": "GI50", "setting": "[15]", "value": 0.0173, "unit": "µM"}, {"measurement": "TGI", "setting": "[15]", "value": 92.7, "unit": "µM"}, {"measurement": "GI50", "setting": "[16]", "value": 0.0169, "unit": "µM"}, {"measurement": "TGI", "setting": "[16]", "value": 16, "unit": "µM"}, {"measurement": "GI50", "setting": "[17]", "value": 0.678, "unit": "µM"}, {"measurement": "TGI", "setting": "[17]", "value": "> 100", "unit": "µM"}, {"measurement": "TGI", "setting": "[18]", "value": "> 100", "unit": "µM"}, {"measurement": "GI50", "setting": "[19]", "value": 7.39, "unit": "µM"}, {"measurement": "TGI", "setting": "[19]", "value": "> 100", "unit": "µM"}, {"measurement": "TGI", "setting": "[20]", "value": "> 100", "unit": "µM"}, {"measurement": "TGI", "setting": "[21]", "value": 14.2, "unit": "µM"}, {"measurement": "GI50", "setting": "[22]", "value": 0.0315, "unit": "µM"}, {"measurement": "TGI", "setting": "[22]", "value": "> 100", "unit": "µM"}, {"measurement": "GI50", "setting": "[23]", "value": 0.0284, "unit": "µM"}, {"measurement": "TGI", "setting": "[23]", "value": "> 100", "unit": "µM"}, {"measurement": "GI50", "setting": "[24]", "value": 0.0152, "unit": "µM"}, {"measurement": "TGI", "setting": "[24]", "value": "> 100", "unit": "µM"}, {"measurement": "TGI", "setting": "[25]", "value": 0.0474, "unit": "µM"}, {"measurement": "TGI", "setting": "[26]", "value": 72, "unit": "µM"}, {"measurement": "GI50", "setting": "[27]", "value": 17.6, "unit": "µM"}, {"measurement": "TGI", "setting": "[27]", "value": "> 100", "unit": "µM"}, {"measurement": "TGI", "setting": "[28]", "value": "> 100", "unit": "µM"}, {"measurement": "TGI", "setting": "[29]", "value": 0.0681, "unit": "µM"}, {"measurement": "GI50", "setting": "[30]", "value": 0.0585, "unit": "µM"}, {"measurement": "TGI", "setting": "[30]", "value": 50, "unit": "µM"}, {"measurement": "TGI", "setting": "[31]", "value": 40.2, "unit": "µM"}, {"measurement": "GI50", "setting": "[32]", "value": 0.0199, "unit": "µM"}, {"measurement": "TGI", "setting": "[33]", "value": "> 100", "unit": "µM"}, {"measurement": "TGI", "setting": "[34]", "value": 34.8, "unit": "µM"}, {"measurement": "TGI", "setting": "[35]", "value": "> 100", "unit": "µM"}, {"measurement": "GI50", "setting": "[36]", "value": 0.0132, "unit": "µM"}, {"measurement": "TGI", "setting": "[36]", "value": "> 100", "unit": "µM"}, {"measurement": "TGI", "setting": "[37]", "value": "0.00758 µM and 0.0471 µM"}, {"measurement": "TGI", "setting": "[38]", "value": 0.00697, "unit": "µM"}, {"measurement": "GI50", "setting": "[39]", "value": 0.0368, "unit": "µM"}, {"measurement": "TGI", "setting": "[39]", "value": 53.8, "unit": "µM"}, {"measurement": "GI50", "setting": "[40]", "value": 0.0656, "unit": "µM"}, {"measurement": "TGI", "setting": "[40]", "value": 6.8, "unit": "µM"}, {"measurement": "TGI", "setting": "[41]", "value": 17.1, "unit": "µM"}, {"measurement": "TGI", "setting": "[42]", "value": "> 100", "unit": "µM"}, {"measurement": "GI50", "setting": "[43]", "value": 15.8, "unit": "µM"}, {"measurement": "TGI", "setting": "[43]", "value": "> 100", "unit": "µM"}, {"measurement": "GI50", "setting": "[44]", "value": 0.0132, "unit": "µM"}, {"measurement": "TGI", "setting": "[44]", "value": "> 100", "unit": "µM"}, {"measurement": "TGI", "setting": "[45]", "value": "> 100", "unit": "µM"}, {"measurement": "TGI", "setting": "[46]", "value": "0.0785 µM and 0.0628 µM"}, {"measurement": "GI50", "setting": "[47]", "value": 0.0431, "unit": "µM"}, {"measurement": "TGI", "setting": "[47]", "value": 28, "unit": "µM"}, {"measurement": "TGI", "setting": "[48]", "value": 26.5, "unit": "µM"}, {"measurement": "GI50", "setting": "[49]", "value": 0.015, "unit": "µM"}, {"measurement": "TGI", "setting": "[49]", "value": "0.0992 µM and 0.205 µM"}]}
